In patent US9233983B2, “Substituted hetero-bicyclic compounds, compositions and medicinal applications thereof” (ADVINUS THERAPEUTICS LIMITED, priority 2012, dated 2016) one finds IC50 data, which are given here for 20 compounds.

Structures are written as SMILES.

One experiment has as its system mouse splenocytes. In words: Inhibition of B Cell Activation as Measured by CD69 Expression in Mouse Splenocytes. The class given is cell-based. The note with it: Splenocyte; C57/BL6 splenocytes, 3 ug/mL goat anti-mouse IgM, 18-20 hrs, CD69+ve cells within CD19; read-out: Mouse spleenocyte IC50. The protocol: Inhibition of B Cell Activation as Measured by CD69 Expression in Mouse Splenocytes:
To test the effect of BTK inhibitors in suppressing B-cell receptor (BCR) mediated activation of B cells, we developed a flow cytometry based assay to analyze CD69 expression in B cell population among total splenocyte from the mouse. […] Finally, cell were cultured in RPMI medium with 10% FBS.
Test compounds were diluted half log starting from 2 mM in 100% DMSO (200×). 1×10^5 splenocytes were incubated with 1 uL of diluted test compounds in 200 uL culture medium in a U-bottom 96 well plate (Greiner) at 37° C. with 5% CO2 for 30 mins. Control wells received 1 uL of 100% DMSO without any compound. The cells were stimulated with 3 ug/mL goat anti-mouse IgM (Sigma, cat#M8644) and incubated for 18-20 hrs. […] Then the cells were washed 3 times with PBS with 1% FBS and analyzed by Guava Easycyte Mini flow cytometer system (Millipore). Flow cytometry data were analyzed using Weasel software (WEHI, Melbourne). First B cells were gated using CD19 markers. Then expression of CD69 was analyzed as percentage of CD69+ve cells within CD19. Percent activity for each data point was calculated using following formula: […]
Percentage activity was fit using sigmoid dose response with variable slope logistic equation in Graph-pad Prism 5 software to determine inhibition constant 50 (IC50).

Experiment [1] deals with human Bruton's Tyrosine Kinase (Btk) (Homo sapiens (Human), UniProt Q06187). As to the kind of experiment: Recombinant Human Bruton's Tyrosine Kinase (Btk) Inhibition Assay (HTRF KinEASE-TK). Type of experiment: biochemical. The note with it: 20 ng/ml rhBtk, 77 μM ATP (KM), 1 μM TK-Biotin substrate, 90 min; read-out: hBTK IC50. (In general: Time-resolved FRET reads energy transfer from a long-lived donor to a nearby acceptor.)
human Bruton's Tyrosine Kinase (Btk), sequence (Q06187 whole entry): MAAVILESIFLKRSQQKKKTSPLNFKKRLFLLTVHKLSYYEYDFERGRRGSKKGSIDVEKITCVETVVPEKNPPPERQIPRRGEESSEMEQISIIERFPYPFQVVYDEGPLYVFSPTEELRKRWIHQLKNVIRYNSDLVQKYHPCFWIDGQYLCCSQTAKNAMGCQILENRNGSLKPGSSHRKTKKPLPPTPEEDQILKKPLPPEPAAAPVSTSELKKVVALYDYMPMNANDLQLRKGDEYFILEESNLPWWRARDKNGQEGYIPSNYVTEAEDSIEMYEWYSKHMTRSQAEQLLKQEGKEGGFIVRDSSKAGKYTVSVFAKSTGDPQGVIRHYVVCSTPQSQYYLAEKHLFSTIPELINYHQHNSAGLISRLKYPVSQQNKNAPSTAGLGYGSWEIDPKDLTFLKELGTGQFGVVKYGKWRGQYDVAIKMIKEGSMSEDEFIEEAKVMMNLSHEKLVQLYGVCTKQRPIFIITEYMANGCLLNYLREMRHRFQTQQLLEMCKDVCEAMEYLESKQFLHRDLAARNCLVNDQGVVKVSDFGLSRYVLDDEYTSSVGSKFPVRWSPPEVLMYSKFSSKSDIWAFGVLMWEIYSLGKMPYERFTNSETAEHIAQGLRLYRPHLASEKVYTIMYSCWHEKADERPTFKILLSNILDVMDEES

One may read the IC50 as the concentration that gives 50% inhibition. As to `CN1CCC(n2cc(-c3cc4c(-c5cccc(N6CCOc7cc(C8CC8)ccc7C6=O)c5CO)ccnc4[nH]3)cn2)CC1` [Example D-5, 8-cyclopropyl-4-[2-(hydroxymethyl)-3-[2-[1-(1-methyl-4-piperidyl)pyrazol-4-yl]-1H-pyrrolo[2,3-b]pyridin-4-yl]phenyl]-2,3-dihydro-1,4-benzoxazepin-5-one], the IC50 with mouse splenocytes came out at 38 nM; in experiment [1] it was 5 nM.

With `CN1CCCC(n2cc(-c3cc4c(-c5cccc(N6CCOc7cc(C8CC8)ccc7C6=O)c5CO)ncnc4[nH]3)cn2)C1` [Example D-6, 8-cyclopropyl-4-[2-(hydroxymethyl)-3-[6-[1-(1-methyl-3-piperidyl)pyrazol-4-yl]-7H-pyrrolo[2,3-d]pyrimidin-4-yl]phenyl]-2,3-dihydro-1,4-benzoxazepin-5-one], the IC50 was determined as 53 nM in the experiment on mouse splenocytes and 5 nM in experiment [1].

In the case of `CN1CC(n2cc(-c3cc4c(-c5cccc(N6CCOc7cc(C8CC8)ccc7C6=O)c5CO)ccnc4[nH]3)cn2)C1` [Example D-7, 8-cyclopropyl-4-[2-(hydroxymethyl)-3-[2-[1-(1-methylazetidin-3-yl)pyrazol-4-yl]-1H-pyrrolo[2,3-b]pyridin-4-yl]phenyl]-2,3-dihydro-1,4-benzoxazepin-5-one], the IC50 in the experiment on mouse splenocytes worked out at 43 nM; in experiment [1] it was 4 nM.

As to `CC(C)N1CC(n2cc(-c3cc4c(-c5cccc(N6CCOc7cc(C8CC8)ccc7C6=O)c5CO)ccnc4[nH]3)cn2)C1` [Example D-8, 8-cyclopropyl-4-[2-(hydroxymethyl)-3-[2-[1-(1-isopropylazetidin-3-yl)pyrazol-4-yl]-1H-pyrrolo[2,3-b]pyridin-4-yl]phenyl]-2,3-dihydro-1,4-benzoxazepin-5-one], the results for the 50% inhibitory concentration (IC50) (in the experiment on mouse splenocytes; in experiment [1]) were 97 nM and 6.5 nM, respectively.

With `CN1CCC(n2cc(-c3cc4c(-c5cccc(-n6ncc7cc(C8CC8)ccc7c6=O)c5CO)ncnc4[nH]3)cn2)CC1` [Example D-9], the 50% inhibitory concentration (IC50) with mouse splenocytes turned out to be 33 nM; in experiment [1], 2 nM.

For `CN1CCN(c2ccc(-c3cc4c(-c5cccc(N6CCOc7cc(C8CC8)ccc7C6=O)c5CO)ccnc4[nH]3)cn2)CC1` [Example D-11, 8-cyclopropyl-4-[2-(hydroxymethyl)-3-[2-[6-(4-methylpiperazin-1-yl)-3-pyridyl]-1H-pyrrolo[2,3-b]pyridin-4-yl]phenyl]-2,3-dihydro-1,4-benzoxazepin-5-one], the figures for the IC50 (with mouse splenocytes; in experiment [1]) were 80 nM and 14 nM, respectively.

In the case of `CC(C)N1CC(Oc2ccc(-c3cc4c(-c5cccc(N6CCOc7cc(C8CC8)ccc7C6=O)c5CO)ccnc4[nH]3)cn2)C1` [Example D-12, 8-cyclopropyl-4-[2-(hydroxymethyl)-3-[2-[6-(1-isopropylazetidin-3-yl)oxy-3-pyridyl]-1H-pyrrolo[2,3-b]pyridin-4-yl]phenyl]-2,3-dihydro-1,4-benzoxazepin-5-one], the IC50 with mouse splenocytes turned out to be 261 nM; in experiment [1], 11 nM.

As for `CCN1CCC(n2cc(-c3cc4c(-c5cccc(-n6ncc7cc(C8CC8)ccc7c6=O)c5CO)ncnc4[nH]3)cn2)CC1` [Example D-13, 6-cyclopropyl-2-[3-[6-[1-(1-ethyl-4-piperidyl)pyrazol-4-yl]-7H-pyrrolo[2,3-d]pyrimidin-4-yl]-2-(hydroxymethyl)phenyl]phthalazin-1-one], the figures for the IC50 (in the experiment with mouse splenocytes; in experiment [1]) were 65 nM and 3 nM, respectively.

`O=C1c2c(F)cc(C3CC3)cc2OCCN1c1cccc(-c2ccnc3[nH]c(-c4cnn(C5CCN(C6COC6)CC5)c4)cc23)c1CO` [Example D-14, 8-cyclopropyl-6-fluoro-4-[2-(hydroxymethyl)-3-[2-[1-[1-(oxetan-3-yl)-4-piperidyl]pyrazol-4-yl]-1H-pyrrolo[2,3-b]pyridin-4-yl]phenyl]-2,3-dihydro-1,4-benzoxazepin-5-one]: the IC50 amounted to 8 nM in the experiment on mouse splenocytes and 1.7 nM in experiment [1].

Regarding `O=C1c2ccc(C3CC3)cc2OCCN1c1cccc(-c2ccnc3[nH]c(-c4cnn(C5COC5)c4)cc23)c1CO` [Example F-1, 8-cyclopropyl-4-[2-(hydroxymethyl)-3-[2-[1-(oxetan-3-yl)pyrazol-4-yl]-1H-pyrrolo[2,3-b]pyridin-4-yl]phenyl]-2,3-dihydro-1,4-benzoxazepin-5-one], the IC50 in the experiment on mouse splenocytes amounted to 70 nM; in experiment [1] it was 3 nM.

As to `CC1(O)CCC(n2cc(-c3cc4c(-c5cccc(N6CCOc7cc(C8CC8)ccc7C6=O)c5CO)ccnc4[nH]3)cn2)CC1` (stereo not shown) [Example F-3, 8-cyclopropyl-4-[2-(hydroxymethyl)-3-[2-[1-(4-hydroxy-4-methyl-cyclohexyl)pyrazol-4-yl]-1H-pyrrolo[2,3-b]pyridin-4-yl]phenyl]-2,3-dihydro-1,4-benzoxazepin-5-one], the IC50 with mouse splenocytes stood at 92 nM; in experiment [1], 3.8 nM.

On to `CN1CCC(Oc2ccc(-c3cc4c(-c5cccc(N6CCOc7cc(C8CC8)ccc7C6=O)c5CO)ncnc4[nH]3)cc2)CC1` [Example G-1, 8-cyclopropyl-4-[2-(hydroxymethyl)-3-[6-[4-[(1-methyl-4-piperidyl)oxy]phenyl]-7H-pyrrolo[2,3-d]pyrimidin-4-yl]phenyl]-2,3-dihydro-1,4-benzoxazepin-5-one], for which the half-inhibitory concentration (IC50) in the experiment on mouse splenocytes was 51 nM; in experiment [1] it was 3 nM.

Turning to `CN1CC(Oc2ccc(-c3cc4c(-c5cccc(N6CCOc7cc(C8CC8)ccc7C6=O)c5CO)ncnc4[nH]3)cc2)C1` [Example G-2, 8-cyclopropyl-4-[2-(hydroxymethyl)-3-[6-[4-(1-methylazetidin-3-yl)oxyphenyl]-7H-pyrrolo[2,3-d]pyrimidin-4-yl]phenyl]-2,3-dihydro-1,4-benzoxazepin-5-one], the IC50 in the experiment on mouse splenocytes came to 54 nM; in experiment [1], 5 nM.

For `CN1CCN(Cc2ccc(-c3cc4c(-c5cccc(N6CCOc7cc(C8CC8)ccc7C6=O)c5CO)ccnc4[nH]3)nc2)CC1` [Example I-1, 8-cyclopropyl-4-[2-(hydroxymethyl)-3-[2-[5-[(4-methylpiperazin-1-yl)methyl]-2-pyridyl]-1H-pyrrolo[2,3-b]pyridin-4-yl]phenyl]-2,3-dihydro-1,4-benzoxazepin-5-one], the IC50 in the experiment on mouse splenocytes was found to be 14 nM; in experiment [1], 5 nM.

Regarding `CN1CCN(Cc2ccc(-c3cc4c(-c5cccc(N6CCOc7cc(C8CC8)cc(F)c7C6=O)c5CO)ccnc4[nH]3)nc2)CC1` [Example I-2, 8-cyclopropyl-6-fluoro-4-[2-(hydroxymethyl)-3-[2-[5-[(4-methylpiperazin-1-yl)methyl]-2-pyridyl]-1H-pyrrolo[2,3-b]pyridin-4-yl]phenyl]-2,3-dihydro-1,4-benzoxazepin-5-one], the IC50 with mouse splenocytes came out at 5 nM; in experiment [1], 1 nM.

`CCN1CCN(Cc2ccc(-c3cc4c(-c5cccc(N6CCOc7cc(C8CC8)ccc7C6=O)c5CO)ccnc4[nH]3)nc2)CC1` [Example I-4, 8-cyclopropyl-4-[3-[2-[5-[(4-ethylpiperazin-1-yl)methyl]-2-pyridyl]-1H-pyrrolo[2,3-b]pyridin-4-yl]-2-(hydroxymethyl)phenyl]-2,3-dihydro-1,4-benzoxazepin-5-one]: the IC50 was found to be 23 nM with mouse splenocytes and 2 nM in experiment [1].

`O=C1c2ccc(C3CC3)cc2OCCN1c1cccc(-c2ccnc3[nH]c(-c4ccc(CN5CCN(C6CC6)CC5)cn4)cc23)c1CO` [Example I-5, 8-cyclopropyl-4-[3-[2-[5-[(4-cyclopropylpiperazin-1-yl)methyl]-2-pyridyl]-1H-pyrrolo[2,3-b]pyridin-4-yl]-2-(hydroxymethyl)phenyl]-2,3-dihydro-1,4-benzoxazepin-5-one]: the IC50 with mouse splenocytes stood at 30 nM; in experiment [1], 3 nM.

`CS(=O)(=O)N1CCN(Cc2ccc(-c3cc4c(-c5cccc(N6CCOc7cc(C8CC8)ccc7C6=O)c5CO)ccnc4[nH]3)nc2)CC1` [Example I-6, 8-cyclopropyl-4-[2-(hydroxymethyl)-3-[2-[5-[(4-methylsulfonylpiperazin-1-yl)methyl]-2-pyridyl]-1H-pyrrolo[2,3-b]pyridin-4-yl]phenyl]-2,3-dihydro-1,4-benzoxazepin-5-one]: the values for the IC50 (in the experiment with mouse splenocytes; in experiment [1]) were 36 nM and 3 nM, respectively.

For `CC(C)N1CCN(Cc2ccc(-c3cc4c(-c5cccc(N6CCOc7cc(C8CC8)ccc7C6=O)c5CO)ccnc4[nH]3)nc2)CC1` [Example I-7, 8-cyclopropyl-4-[2-(hydroxymethyl)-3-[2-[5-[(4-isopropylpiperazin-1-yl)methyl]-2-pyridyl]-1H-pyrrolo[2,3-b]pyridin-4-yl]phenyl]-2,3-dihydro-1,4-benzoxazepin-5-one], the results for the IC50 (in the experiment with mouse splenocytes; in experiment [1]) were 21 nM and 2 nM, respectively.

Regarding `O=C1c2ccc(C3CC3)cc2OCCN1c1cccc(-c2ccnc3[nH]c(-c4ccc(CN5CCS(=O)(=O)CC5)cn4)cc23)c1CO` [Example I-8, 8-cyclopropyl-4-[3-[2-[5-[(1,1-dioxo-1,4-thiazinan-4-yl)methyl]-2-pyridyl]-1H-pyrrolo[2,3-b]pyridin-4-yl]-2-(hydroxymethyl)phenyl]-2,3-dihydro-1,4-benzoxazepin-5-one], the IC50 in the experiment with mouse splenocytes was 85 nM; in experiment [1], 9 nM.
